Assays:
[1] = target: T1, PYR1^WIN-M (Arabidopsis thaliana, UniProt O49686, A160I/D26G/F159A/H60P/K59Q/N90S/Y23H); test: PYR1 ELISA-like plate assay, immobilized PYR1^WIN-M with biotinylated ΔN-HAB1^T+; assay type: binding; conditions: PYR1^WIN-M ELISA-like format
T1 construct: made in house; host or cells: E. coli
Method: PYR1 was immobilized overnight in clear plates, blocked with KPL milk diluent in buffer CBS ^17 (CBSM). All binding reactions were performed using CBSM. Detection was performed via binding a streptavidin-HRP conjugate to biotinylated ΔN-HAB1^T+ followed by incubation with a commercial TMB reagent. Lower limits of detection (LODs) were determined by linear regression of the response data in the low linear range using the formula LOD=3σy/m, where m is the slope of the response line and σy is the standard error of the y intercept using data combined from biological replicates.
Unconjugated 6×His-MBP-PYR1 variants were immobilized to Microlon clear plates (655081) using 100 μL of CBS without pH modification, at a protein concentration of 100 μg mL^−1, or 1.57 AM at 4° C. overnight. Wells assigned as no PYR controls received only CBS. Plates were sealed using Microseal B adhesive sealers (BioRad MSB-1001). […] The pellet was stored on ice until the blocked and washed plates were ready to receive the binding reactions. ΔN-HAB1^T+ was exchanged into CBSM with 1 mM DTT and 1 mM TCEP (CBSM++) using Zeba™ spin desalting columns (Thermo) were equilibrated with CBSM++. ΔN-HAB1^T+ was diluted to 10× the final binding reaction concentration and was immediately added to the pre-assembled assays in PCR plates, which were mixed by pipetting and transferred to the washed, blocked Microlon plates. […]

[2] = tested on: PYR1 mutant receptors (ligand-dependent binding to HAB1); test: Yeast two-hybrid screens of PYR1 DSM and CB-S libraries for cannabinoid sensors

T1 sequence (O49686 whole entry Y23H/D26G/K59Q/H60P/N90S/F159A/A160I, other chains not shown): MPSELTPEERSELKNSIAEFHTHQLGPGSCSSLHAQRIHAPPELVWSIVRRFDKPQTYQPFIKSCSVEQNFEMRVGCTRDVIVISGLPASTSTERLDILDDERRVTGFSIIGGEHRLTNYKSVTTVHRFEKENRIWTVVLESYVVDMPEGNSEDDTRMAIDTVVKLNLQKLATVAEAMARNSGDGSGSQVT

Cc1c(C(=O)c2cccc3ccccc23)c2cccc3c2n1[C@H](CN1CCOCC1)CO3 [WIN 55,212-2]
average LOD from two biological replicates [1]: 0.21 ng/ml
affinity of improved sensors ([2]; CB-S2 library screened on 50 nM, 25 nM: JWH-015 PYR1 K59N/Y120H/F159L/A160G, JWH-016 V81I/Y120G/F159L/A160G, JWH-072 E4G/K59N/Y120H/F159L/A160G, WIN 55,212 E4G/Y23H/D26G/K59Q/F159A/A160I): low nM affinity
outcome of DSM library Y2H selection ([2]; DSM library selected on 30 μM ligand, hits for 'pM concentrations' as printed): double mutant hits
